According to patent US20200339604A1, “PYRAZOLOPYRIMIDINE COMPOUNDS AS JAK INHIBITORS” (Genentech, Inc., priority 2018, published 2020):
Like-named read-outs stand apart in the source and are kept apart here.

Key:
[1] = target: T1, isolated recombinant JAK2 kinase domain (Homo sapiens, UniProt O60674); assay: JAK enzyme assay, JAK2 kinase domain (Caliper LabChip); format: biochemical; details: 0.2 nM JAK2, ATP 25 μM, Morrison tight binding model
T1 construct: isolated recombinant JAK1 and JAK2 kinase domain
Experimental: (§1) JAK Enzyme Assays were Carried Out as Follows:
(§2) The activity of the isolated recombinant JAK1 and JAK2 kinase domain was measured by monitoring phosphorylation of a peptide derived from JAK3 ([…] fluorescently labeled on the N-terminus with 5-carboxyfluorescein) using the Caliper LabChip® technology (Caliper Life Sciences, Hopkinton, Mass.). To determine inhibition constants (K), compounds were diluted serially in DMSO and added to 50 μL kinase reactions containing purified enzyme (1.5 nM JAK1, or 0.2 nM JAK2), 100 mM HEPES buffer (pH 7.2), 0.015% Brij-35, 1.5 μM peptide substrate, ATP (25 μM), 10 mM MgCl2, 4 mM DTT at a final DMSO concentration of 2%.
(§3) Reactions were incubated at 22° C. in 384-well polypropylene microtiter plates for 30 minutes and then stopped by addition of 25 µL of an EDTA containing solution (100 mM HEPES buffer (pH 7.2), 0.015% Brij-35, 150 mM EDTA), resulting in a final EDTA concentration of 50 mM. After termination of the kinase reaction, the proportion of phosphorylated product was determined as a fraction of total peptide substrate using the Caliper LabChip® 3000 according to the manufacturer's specifications. K values were then determined using the Morrison tight binding model (Morrison, J. F., Biochim. Biophys. Acta. 185:269-296 (1969); William, J. W. and Morrison, J. F., Meth. Enzymol., 63:437-467 (1979)) modified for ATP-competitive inhibition [Ki=Ki, app/(1+[ATP]/Km,app)].

[2] = system: JAK1-dependent STAT6 phosphorylation downstream of IL-13 stimulation, BEAS-2B human bronchial epithelial cells; assay: JAK1 pathway assay in cell lines: IL-13 stimulated STAT6 phosphorylation in BEAS-2B cells (MSD); format: cell-based; details: IL-13 stimulation 15 min at EC90, read-out: IL-13 p-STAT6 BEAS-2B IC50
Experimental: JAK1 Pathway Assay in Cell Lines was Carried Out as Follows:
Inhibitor potency (EC50) was determined in cell-based assays designed to measure JAK1 dependent STAT phosphorylation. As noted above, inhibition of IL-4, IL-13, and IL-9 signaling by blocking the Jak/Stat signaling pathway can alleviate asthmatic symptoms in pre-clinical lung inflammation models (Mathew et al., 2001, J Exp Med 193(9): 1087-1096; Kudlacz et. al., 2008, Eur J. Pharmacol 582(1-3): 154-161).
In one assay approach, TF-1 human erythroleukemia cells obtained from the American Type Culture Collection (ATCC; Manassas, Va.) were used to measure JAK1-dependent STAT6 phosphorylation downstream of IL-13 stimulation. Prior to use in the assays, TF-1 cells were starved of GM-CSF overnight in OptiMEM medium (Life Technologies, Grand Island, N.Y.) supplemented with 0.5% charcoal/dextran stripped fetal bovine serum (FBS), 0.1 mM non-essential amino acids (NEAA), and 1 mM sodium pyruvate. The assays were run in 384-well plates in serum-free OptiMEM medium using 300,000 cells per well. In a second assay approach, BEAS-2B human bronchial epithelial cells obtained from ATCC were plated at 100,000 cells per well of a 96-well plate one day prior to the experiment. The BEAS-2B assay was run in complete growth medium (bronchial epithelial basal medium plus bulletkit; Lonza; Basel, Switzerland).
Test compounds were serially diluted 1:2 in DMSO and then diluted 1:50 in medium just before use. Diluted compounds were added to the cells, for a final DMSO concentration of […], and incubated for 30 m (for the TF-1 assay) or […] (for the BEAS-2B assay) at 37° C. Then, cells were stimulated with human recombinant cytokine at their respective EC90 concentrations, as previously determined for each individual lot. Cells were stimulated with IL-13 (R&D Systems, Minneapolis, Minn.) for 15 min at 37° C. The TF-1 cell reactions were stopped by the direct addition of 10× lysis buffer (Cell Signaling Technologies, Danvers, Mass.), whereas the BEAS-2B cell incubations were halted by the removal of medium and addition of 1× lysis buffer. The resultant samples were frozen in the plates at −80° C. Compound mediated inhibition of STAT6 phosphorylation was measured in the cell lysates using MesoScale Discovery (MSD) technology (Gaithersburg, Md.).

[3] = target: T2, isolated recombinant JAK1 kinase domain (Homo sapiens, UniProt P23458); assay: JAK enzyme assay, JAK1 kinase domain (Caliper LabChip); format: biochemical; details: 1.5 nM JAK1, ATP 25 μM, Morrison tight binding model
T2 construct: isolated recombinant JAK1 and JAK2 kinase domain
Experimental: as §1, §2, §3

T2 sequence (P23458 875-1153 limits assumed): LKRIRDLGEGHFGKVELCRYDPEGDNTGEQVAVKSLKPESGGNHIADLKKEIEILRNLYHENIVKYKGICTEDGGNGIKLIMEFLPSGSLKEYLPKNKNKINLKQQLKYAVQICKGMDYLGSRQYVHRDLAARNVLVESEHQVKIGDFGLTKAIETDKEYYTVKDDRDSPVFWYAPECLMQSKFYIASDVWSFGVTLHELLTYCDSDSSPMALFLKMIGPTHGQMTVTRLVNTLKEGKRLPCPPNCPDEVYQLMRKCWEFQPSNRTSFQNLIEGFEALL
T1 sequence (O60674 849-1124 limits assumed): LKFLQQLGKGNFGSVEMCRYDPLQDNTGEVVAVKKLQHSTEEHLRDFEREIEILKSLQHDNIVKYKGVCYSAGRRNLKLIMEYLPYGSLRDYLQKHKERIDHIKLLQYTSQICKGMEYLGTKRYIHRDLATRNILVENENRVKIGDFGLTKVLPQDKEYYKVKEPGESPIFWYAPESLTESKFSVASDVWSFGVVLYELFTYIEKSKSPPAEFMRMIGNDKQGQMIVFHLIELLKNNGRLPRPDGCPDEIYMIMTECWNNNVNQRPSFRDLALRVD

Compound | Ki [1] [nM] | Ki [3] [nM] | IC50 [2] [nM] | IC50 ([2]; Homo sapiens, BEAS-2B, […]) [nM]
CSc1ccc(OC(F)F)c(-c2nn(C3CCN(C)C3=O)cc2NC(=O)c2cnn3cccnc23)c1 (single isomer, unassigned) [Example 7, N-[3-[2-(difluoromethoxy)-5-methylsulfanyl-phenyl]-1-(1-methyl-2-oxo-pyrrolidin-3-yl)pyrazol-4-yl]pyrazolo[1,5-a]pyrimidine-3-carboxamide] | 0.31 | 0.84 | 42 | –
O=C(Nc1cn(C2CCOC2=O)nc1-c1cc(OC(F)F)ccc1OC(F)F)c1cnn2cccnc12 (single isomer, unassigned) [Example 36, N-[3-[2,5-bis(difluoromethoxy)phenyl]-1-(2-oxotetrahydrofuran-3-yl)pyrazol-4-yl]pyrazolo[1,5-a]pyrimidine-3-carboxamide] | 0.4 | 0.65 | – | 18
CSc1ccc(OC(F)F)c(-c2nn(C3CCOC3=O)cc2NC(=O)c2cnn3cccnc23)c1 (single isomer, unassigned) [Example 29, N-[3-[2-(difluoromethoxy)-5-methylsulfanyl-phenyl]-1-(2-oxotetrahydrofuran-3-yl)pyrazol-4-yl]pyrazolo[1,5-a]pyrimidine-3-carboxamide] | 0.15 | 0.3 | – | 9.2
CN1CCN(C(=O)CN2CCC(n3cc(NC(=O)c4cnn5cccnc45)c(-c4cc(Cl)ccc4OC(F)F)n3)C2=O)CC1 (single isomer, unassigned) [Example 17, N-[3-[5-chloro-2-(difluoromethoxy)phenyl]-1-[1-[2-(4-methylpiperazin-1-yl)-2-oxo-ethyl]-2-oxo-pyrrolidin-3-yl]pyrazol-4-yl]pyrazolo[1,5-a]pyrimidine-3-carboxamide] | 1.5 | 2.6 | 300 | –
O=C(Nc1cn(C2CCOC2=O)nc1-c1cc(Cl)ccc1OC(F)F)c1cnn2cccnc12 (single isomer, unassigned) [Example 28, N-[3-[5-chloro-2-(difluoromethoxy)phenyl]-1-(2-oxotetrahydrofuran-3-yl)pyrazol-4-yl]pyrazolo[1,5-a]pyrimidine-3-carboxamide] | 0.2 | 0.35 | 11 | –
CN1CC[C@H](n2cc(NC(=O)c3cnn4cccnc34)c(-c3cc(Cl)ccc3OC(F)F)n2)C1=O (stereo in doubt) [Example 2, N-[3-[5-chloro-2-(difluoromethoxy)phenyl]-1-[rac-(3S)-1-methyl-2-oxo-pyrrolidin-3-yl]pyrazol-4-yl]pyrazolo[1,5-a]pyrimidine-3-carboxamide] | 0.4 | 0.21 | – | 12
O=C(Nc1cn(C2CCOC2=O)nc1-c1cc(Cl)ccc1OC(F)F)c1cnn2cccnc12 (racemic) [Example 25, N-[3-[5-chloro-2-(difluoromethoxy)phenyl]-1-(2-oxotetrahydrofuran-3-yl)pyrazol-4-yl]pyrazolo[1,5-a]pyrimidine-3-carboxamide; formic acid] | 0.21 | 0.37 | – | 19
O=C(Nc1cn(C2CCCCC2=O)nc1-c1cc(Cl)ccc1OC(F)F)c1cnn2cccnc12 (racemic) [Example 1, N-[3-[5-chloro-2-(difluoromethoxy)phenyl]-1-(2-oxocyclohexyl)pyrazol-4-yl] pyrazolo [1,5-a] pyrimidine-3-carboxamide] | 1.4 | 1.1 | – | 33
CSc1ccc(OC(F)F)c(-c2nn(C3CCN(C)C3=O)cc2NC(=O)c2cnn3cccnc23)c1 (single isomer, unassigned) [Example 6, N-[3-[2-(difluoromethoxy)-5-methylsulfanyl-phenyl]-1-(1-methyl-2-oxo-pyrrolidin-3-yl)pyrazol-4-yl]pyrazolo[1,5-a]pyrimidine-3-carboxamide] | 0.24 | 0.18 | 11 | –
CN1CCCC(n2cc(NC(=O)c3cnn4cccnc34)c(-c3cc(Cl)ccc3OC(F)F)n2)C1=O (single isomer, unassigned) [Example 20, N-[3-[5-chloro-2-(difluoromethoxy)phenyl]-1-(1-methyl-2-oxo-3-piperidyl)pyrazol-4-yl]pyrazolo[1,5-a]pyrimidine-3-carboxamide] | 1.5 | 0.48 | 24 | –
CN1CCC(n2cc(NC(=O)c3cnn4cccnc34)c(-c3cc4c(cc3OC(F)F)NCCS4)n2)C1=O (single isomer, unassigned) [Example 13, N-[3-[6-(difluoromethoxy)-3,4-dihydro-2H-1,4-benzothiazin-7-yl]-1-(1-methyl-2-oxo-pyrrolidin-3-yl)pyrazol-4-yl]pyrazolo[1,5-a]pyrimidine-3-carboxamide] | 0.43 | 0.88 | 290 | –

Continued by falling Ki [1], values first:

Ki [1] [nM] | Ki [3] [nM] | Compound | IC50 [2] [nM] | IC50 ([2]; Homo sapiens, BEAS-2B, […]) [nM]
0.84 | 0.3 | CN1CCC(n2cc(NC(=O)c3cnn4cccnc34)c(-c3cc(OC(F)F)ccc3OC(F)F)n2)C1=O (single isomer, unassigned) [Example 8, N-[3-[2,5-bis(difluoromethoxy)phenyl]-1-(1-methyl-2-oxo-pyrrolidin-3-yl)pyrazol-4-yl]pyrazolo[1,5-a]pyrimidine-3-carboxamide] | 20 | –
0.81 | 2.5 | CN1CC[C@@H](n2cc(NC(=O)c3cnn4cccnc34)c(-c3cc(Cl)ccc3OC(F)F)n2)C1=O (stereo in doubt) [Example 3, N-[3-[5-chloro-2-(difluoromethoxy)phenyl]-1-[rac-(3R)-1-methyl-2-oxo-pyrrolidin-3-yl]pyrazol-4-yl]pyrazolo[1,5-a]pyrimidine-3-carboxamide] | – | 50
0.5 | 1.2 | CN1CCC(n2cc(NC(=O)c3cnn4cccnc34)c(-c3cc4c(cc3OC(F)F)NCCO4)n2)C1=O (single isomer, unassigned) [Example 11, N-[3-[6-(difluoromethoxy)-3,4-dihydro-2H-1,4-benzoxazin-7-yl]-1-(1-methyl-2-oxo-pyrrolidin-3-yl)pyrazol-4-yl]pyrazolo[1,5-a]pyrimidine-3-carboxamide] | 230 | –
0.4 | 0.78 | O=C(Nc1cn([C@H]2CCNC2=O)nc1-c1cc(Cl)ccc1OC(F)F)c1cnn2cccnc12 (single isomer, unassigned) [Example 4, N-[3-[5-chloro-2-(difluoromethoxy)phenyl]-1-(2-oxopyrrolidin-3-yl)pyrazol-4-yl]pyrazolo[1,5-a]pyrimidine-3-carboxamide] | – | 24
0.39 | 0.28 | CN1CCC(n2cc(NC(=O)c3cnn4cccnc34)c(-c3cc(SC(F)F)ccc3OC(F)F)n2)C1=O (single isomer, unassigned) [Example 18, N-[3-[2-(difluoromethoxy)-5-(difluoromethyl-sulfanyl)phenyl]-1-(1-methyl-2-oxo-pyrrolidin-3-yl)pyrazol-4-yl]pyrazolo[1,5-a]pyrimidine-3-carboxamide] | 15 | –
